Columns and labels:
Format in all cases: in vivo
[1] = system: Echinochloa oryzacola Vasing.; assay: Test Example 2: herbicidal activity, application during weed generation in submerged conditions; details: Eighteenth Table; application herbicide amount 320 g/ha
How it was run: (§1)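 Mixed sowings in flooded alluvial soil (4 cm water), greenhouse 25-30 °C; emulsifiable concentrate diluted in water applied to the water surface at the 1-2 leaf stage, rate in g/ha. Effect scored three weeks later on a 0-5 scale (5 = ≥90% herbicidal ratio, 0 = ≤5%).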

Monochoria vaginalis = assay: as above; details: Eighteenth Table; application herbicide amount 320 g/ha
How it was run: as §1

Scirpus juncoides = assay: as above; details: Eighteenth Table; application herbicide amount 320 g/ha
How it was run: as §1

Abutilon theophrasti = assay: Test Example 4: herbicidal effect by application to foliage (diluvial soil, plastic box); details: 320 g/ha
How it was run: (§2)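 Plants were grown in sterilized diluvial soil in a greenhouse at 25-30° C for 14 days, then sprayed on stems and leaves with water-diluted emulsion formulation at set rates in g/ha. Weed control and crop injury were scored 3 weeks after treatment on a 0-5 herbicidal-ratio scale, from 0 (≤5%) to 5 (≥90%).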

Alopecurus myosuroides = assay: as above; details: 320 g/ha
How it was run: as §2

Amaranthus retroflexus = assay: as above; details: 320 g/ha
How it was run: as §2

Apera spica-venti. = assay: as above; details: 320 g/ha
How it was run: as §2

Avena fatua = assay: as above; details: 320 g/ha
How it was run: as §2

Digitaria ciliaris = assay: as above; details: 320 g/ha
How it was run: as §2

[2] = system: Echinochloa crus-galli var. crus-galli; assay: as above; details: 320 g/ha
How it was run: as §2

Lolium multiflorum Lam. = assay: as above; details: 320 g/ha
How it was run: as §2

Setaria viridis = assay: as above; details: 320 g/ha
How it was run: as §2

Stellaria media = assay: as above; details: 320 g/ha
How it was run: as §2

Veronica persica = assay: as above; details: application to foliage, 320 g/ha
How it was run: as §2

Chenopodium album = assay: as above; details: foliage application, 320 g/ha
How it was run: as §2

CCCn1nnnc1NC(=O)c1ccc(C(F)(F)F)n2c(C(C)C)nnc12 [2-090]
A (Echinochloa oryzicola Vasing.) herbicidal ratio grade [1]: 5 (Herbicidal ratio of 90% or more (almost completely withered))
C (Monochoria vaginalis) herbicidal ratio grade (Monochoria vaginalis): 4 (Herbicidal ratio of 70% or more and less than 90%)
B (Scirpus juncoides) herbicidal ratio grade (Scirpus juncoides): 5 (Herbicidal ratio of 90% or more (almost completely withered))
herbicidal effect, M (Abutilon theophrasti) (Abutilon theophrasti; application to foliage): 3 (Herbicidal ratio of 40% or more and less than 70%)
herbicidal effect, J (Alopecurus myosuroides) (Alopecurus myosuroides; application to foliage): 3 (Herbicidal ratio of 40% or more and less than 70%)
herbicidal effect, N (Amaranthus retroflexus) (Amaranthus retroflexus; application to foliage): 4 (Herbicidal ratio of 70% or more and less than 90%)
herbicidal effect, L (Apera spica-venti.) (Apera spica-venti.; application to foliage): 4 (Herbicidal ratio of 70% or more and less than 90%)
herbicidal effect, I (Avena fatua) (Avena fatua; application to foliage): 4 (Herbicidal ratio of 70% or more and less than 90%)
herbicidal effect, F (Digitaria ciliaris) (Digitaria ciliaris; application to foliage): 5 (Herbicidal ratio of 90% or more (almost completely withered))
herbicidal effect, H (Echinochloa crus-galli var. crus-galli) ([2]; application to foliage): 5 (Herbicidal ratio of 90% or more (almost completely withered))
herbicidal effect, K (Lolium multiflorum Lam.) (Lolium multiflorum Lam.; application to foliage): 4 (Herbicidal ratio of 70% or more and less than 90%)
herbicidal effect, G (Setaria viridis) (Setaria viridis; application to foliage): 4 (Herbicidal ratio of 70% or more and less than 90%)
herbicidal effect, P (Stellaria media) (Stellaria media; application to foliage): 5 (Herbicidal ratio of 90% or more (almost completely withered))
herbicidal effect, R (Veronica persica) (Veronica persica): 3 (Herbicidal ratio of 40% or more and less than 70%)

CSC(C)c1nnc2c(C(=O)Nc3nnnn3C)ccc(C(F)(F)F)n12 (stereo not shown) [2-052]
A (Echinochloa oryzicola Vasing.) herbicidal ratio grade [1]: 5 (Herbicidal ratio of 90% or more (almost completely withered))
C (Monochoria vaginalis) herbicidal ratio grade (Monochoria vaginalis): 4 (Herbicidal ratio of 70% or more and less than 90%)
B (Scirpus juncoides) herbicidal ratio grade (Scirpus juncoides): 4 (Herbicidal ratio of 70% or more and less than 90%)
M (Abutilon theophrasti) herbicidal effect grade (Abutilon theophrasti; foliage application): 5 (Herbicidal ratio of 90% or more (almost completely withered))
J (Alopecurus myosuroides) herbicidal effect grade (Alopecurus myosuroides; foliage application): 5 (Herbicidal ratio of 90% or more (almost completely withered))
N (Amaranthus retroflexus) herbicidal effect grade (Amaranthus retroflexus; foliage application): 5 (Herbicidal ratio of 90% or more (almost completely withered))
L (Apera spica-venti.) herbicidal effect grade (Apera spica-venti.; foliage application): 5 (Herbicidal ratio of 90% or more (almost completely withered))
I (Avena fatua) herbicidal effect grade (Avena fatua; foliage application): 5 (Herbicidal ratio of 90% or more (almost completely withered))
O (Chenopodium album) herbicidal effect grade (Chenopodium album): 5 (Herbicidal ratio of 90% or more (almost completely withered))
F (Digitaria ciliaris) herbicidal effect grade (Digitaria ciliaris; foliage application): 5 (Herbicidal ratio of 90% or more (almost completely withered))
H (Echinochloa crus-galli var. crus-galli) herbicidal effect grade ([2]; foliage application): 5 (Herbicidal ratio of 90% or more (almost completely withered))
K (Lolium multiflorum Lam.) herbicidal effect grade (Lolium multiflorum Lam.; foliage application): 5 (Herbicidal ratio of 90% or more (almost completely withered))
G (Setaria viridis) herbicidal effect grade (Setaria viridis; foliage application): 5 (Herbicidal ratio of 90% or more (almost completely withered))
P (Stellaria media) herbicidal effect grade (Stellaria media; foliage application): 5 (Herbicidal ratio of 90% or more (almost completely withered))
